The values below come from patent publication US20250120980A1, “DIBENZ[…] AND USE IN […] PROTEIN AGONISTS THEREOF” (priority 2023, published 2025).

Where “and” joins values, the source holds several entries; their conditions need not be identical. Identical values can stand only once.

What all share (assay type): cell-based
The subject of assay [1] is PRV-GFP (porcine pseudorabies virus).
Assay [2] has as its system VSV-GFP (vesicular stomatitis virus).
In a further assay the test system is IAV (influenza virus).
In assay [3] the test system is STING pathway (IFNb gene expression) in L929 mouse epithelial-like fibroblasts.

With `Cc1ccc2c(c1C)Nc1ccccc1CC2=O` [Compound 11, 6,7-dimethyl-5,11-dihydro-10H-dibenzo[b,f]aza-10-one], in assay [1], the “Infection Rate, PRV-GFP” value was 13.1% and 14.2% and 13.5%; the “proportion of PRV-GFP infected cells (in words)” value is given as “significantly reduced”. In assay [2], the “Infection Rate, VSV-GFP” value is 40% and 31.1% and 33.7%; the “proportion of VSV-GF infected cells (in words)” value is “significantly reduced”. The “M1 (M gene of influenza virus) Ct value” in the assay on IAV (influenza virus) was 18.71 and 18.62 and 18.68.
Consider `Cc1ccc2c(c1C)Nc1cc(F)ccc1CC2=O` [Compound 13, 3-fluoro-6,7-dimethyl-5,11-dihydro-10H-dibenzo[b,f]aza-10-one], for which the “IFNb mRNA expression 2-^ΔΔCt value” in assay [3] is 2.97 and 2.37 and 2.48 and 3.34. For the same compound, in assay [1], the “Infection Rate, PRV-GFP” value is 7.06% and 8.55% and 7.42%; the “proportion of PRV-GFP infected cells (in words)” value is reported as “significantly reduced”. Also, in assay [2], the “Infection Rate, VSV-GFP” value is 94.3% and 92.7% and 92.1%; the “proportion of VSV-GF infected cells (in words)” value was “significantly reduced”. Also, the “M1 (M gene of influenza virus) Ct value” with IAV (influenza virus) was 19.45 and 20.25 and 19.66.
With `O=C1Cc2ccccc2Nc2ccccc21` [Compound 14, 5,11-dihydro-10H-dibenzo[b,f]aza-10-one], in assay [1], the “Infection Rate, PRV-GFP” value is 17.1% and 19.5% and 19.8%; the “proportion of PRV-GFP infected cells (in words)” value is reported as “significantly reduced”. In assay [2], the “Infection Rate, VSV-GFP” value is 76.1% and 66.5% and 65.8%; the “proportion of VSV-GF infected cells (in words)” value is recorded as “significantly reduced”. For the same compound, the “M1 (M gene of influenza virus) Ct value” in the assay on IAV (influenza virus) was 18.99 and 19.52 and 19.69.
For the compound `O=C1Cc2ccccc2Nc2c(Cl)cccc21` [Compound 15, 6-chloro-5,11-dihydro-10H-dibenzo[b,f]aza-10-one], the “IFNb mRNA expression 2-^ΔΔCt value” in assay [3] is 1.61.
Same read-out and setting: under `COc1ccc2c(c1)C(=O)Cc1ccccc1N2` [Compound 17, 8-methoxy-5,11-dihydro-10H-dibenzo[b,f]aza-10-one] stands 1.54.
As for `COc1ccc2c(c1)Nc1c(ccc(C)c1C)C(=O)C2` [Compound 18, 3-methoxy-6,7-dimethyl-5,11-dihydro-10H-dibenzo[b,f]aza-10-one], the “IFNb mRNA expression 2-^ΔΔCt value” in assay [3] was 8.76 and 6.92 and 6.07 and 5.62. Besides, in assay [1], the “Infection Rate, PRV-GFP” value is 18.3% and 18.1%; the “proportion of PRV-GFP infected cells (in words)” value is “significantly reduced”. Besides, in assay [2], the “Infection Rate, VSV-GFP” value was 13.9% and 12.5% and 12.9%; the “proportion of VSV-GF infected cells (in words)” value is “significantly reduced”. The “M1 (M gene of influenza virus) Ct value” with IAV (influenza virus) was 19.52 and 19.47 and 19.51.
In the case of `COc1ccc2c(c1)CC(=O)c1ccc(C)c(C)c1N2` [Compound 19, 2-methoxy-6,7-dimethyl-5,11-dihydro-10H-dibenzo[b,f]aza-10-one], in assay [1], the “Infection Rate, PRV-GFP” value was 51% and 55.7% and 50.2%; the “proportion of PRV-GFP infected cells (in words)” value is “significantly reduced”. Moreover, in assay [2], the “Infection Rate, VSV-GFP” value is 99% and 91.1% and 90.5%; the “proportion of VSV-GF infected cells (in words)” value is recorded as “significantly reduced”. For the same compound, the “M1 (M gene of influenza virus) Ct value” in the assay on IAV (influenza virus) is 21.37 and 21.39 and 21.49.
